Source: the supplement of paper PMC10307832

Compound: CC(C)N(CCCNC(=O)Nc1ccc(C(C)(C)C)cc1)C[C@H]1O[C@@H](n2ccc3c(N)ncnc32)[C@H](O)[C@@H]1O + O=C(CCCCCCC(=O)Nc1ccccc1)NO [Vorinostat] (partner 1 µM)
Experiment: relative viability (nuclei count vs DMSO), 5 days (fraction); higher = more cells survive
Conditions: first compound 0.08 µM
Procedure, shortened: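 Relative viability was taken as the ratio of nuclei in treated wells to nuclei in vehicle wells. Lung cancer cell lines in 1536-well plates received compounds by pin tool one day after seeding, either one drug alone or a fixed anchor-drug dose plus five library-drug doses (not always all listed) in √10 steps. Nuclei were counted on 4× images after 5 days of treatment, and values are medians of duplicate plates.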

First: NCI-H650
Second: LK-2
The relative viability of the first is higher: 0.414 for the first, 0.325 for the second.

Going from NCI-H2126 to NCI-H1648, the relative viability falls from 0.672 to 0.466.

Compared with SK-MES-1, H3255 is lower in relative viability: 1.04 for the first, 0.743 for the second.

First: COR-L23
Second: COR-L 105
The relative viability of the first is lower: 0.378 for the first, 0.893 for the second.

Compared with IA-LM, LOU-NH91 is higher in relative viability: 0.88 for the first, 0.9 for the second.

First: ChaGo-K-1
Second: NCI-H2170
The relative viability of the first is lower: 0.785 for the first, 0.811 for the second.

First: HCC-44
Second: NCI-H522
The relative viability of the first is higher: 1.1 for the first, 0.771 for the second.

Going from SW 900 to NCI-H1395, the relative viability rises from 0.639 to 0.727.

Compared with NCI-H1793, NCI-H1944 is lower in relative viability: 0.617 for the first, 0.508 for the second.

Compared with ABC-1, NCI-H358 is lower in relative viability: 1.19 for the first, 0.725 for the second.

NCI-H727 was tested, and the relative viability was 1.12.

Same assay, conditions: first compound 0.253 µM

Going from NCI-H2342 to PC-14, the relative viability falls from 0.744 to 0.722.

First: NCI-H1650
Second: NCI-H2009
The relative viability of the first is lower: 0.608 for the first, 0.73 for the second.

First: NCI-H520
Second: PC-3 [JPC-3]
The relative viability of the first is lower: 0.711 for the first, 0.761 for the second.

First: LCLC-103H
Second: NCI-H647
The relative viability of the first is higher: 0.692 for the first, 0.549 for the second.

Going from NCI-H2228 to EMC-BAC-2, the relative viability falls from 0.703 to 0.416.

First: NCI-H2087
Second: HCC-366
The relative viability of the first is higher: 0.732 for the first, 0.303 for the second.

First: NCI-H1666
Second: NCI-H650
The relative viability of the first is higher: 1 for the first, 0.444 for the second.

Going from LK-2 to NCI-H2126, the relative viability rises from 0.282 to 0.702.

Going from NCI-H1648 to SK-MES-1, the relative viability rises from 0.4 to 1.13.

Going from H3255 to COR-L23, the relative viability falls from 0.807 to 0.431.

First: COR-L 105
Second: IA-LM
The relative viability of the first is higher: 1.41 for the first, 0.761 for the second.

First: LOU-NH91
Second: ChaGo-K-1
The relative viability of the first is higher: 0.832 for the first, 0.827 for the second.

Compared with NCI-H2170, HCC-44 is higher in relative viability: 0.681 for the first, 1.26 for the second.

Compared with NCI-H522, SW 900 is lower in relative viability: 0.801 for the first, 0.38 for the second.

First: NCI-H1395
Second: NCI-H1944
The relative viability of the first is higher: 0.58 for the first, 0.48 for the second.

Going from ABC-1 to NCI-H358, the relative viability falls from 1.29 to 0.629.

For NCI-H727, the relative viability was 1.23.

Same assay, conditions: first compound 0.8 µM

Going from NCI-H2342 to PC-14, the relative viability falls from 0.669 to 0.624.

Compared with NCI-H1650, NCI-H2009 is higher in relative viability: 0.485 for the first, 0.703 for the second.

First: NCI-H1993
Second: NCI-H520
The relative viability of the first is lower: 0.661 for the first, 0.801 for the second.

Compared with LCLC-103H, NCI-H647 is lower in relative viability: 0.585 for the first, 0.472 for the second.

First: NCI-H2228
Second: EMC-BAC-2
The relative viability of the first is higher: 0.543 for the first, 0.461 for the second.

First: NCI-H2087
Second: HCC-366
The relative viability of the first is higher: 0.929 for the first, 0.182 for the second.

Compared with NCI-H1666, NCI-H650 is lower in relative viability: 1.02 for the first, 0.459 for the second.

Going from LK-2 to NCI-H2126, the relative viability rises from 0.391 to 0.825.

First: NCI-H1648
Second: SK-MES-1
The relative viability of the first is lower: 0.407 for the first, 0.867 for the second.

Going from H3255 to COR-L23, the relative viability falls from 0.717 to 0.462.

First: COR-L 105
Second: IA-LM
The relative viability of the first is lower: 0.879 for the first, 0.909 for the second.

Compared with ChaGo-K-1, NCI-H2170 is higher in relative viability: 0.756 for the first, 0.807 for the second.

Going from HCC-44 to NCI-H522, the relative viability falls from 1.04 to 0.697.

Going from NCI-H1395 to NCI-H1793, the relative viability rises from 0.427 to 0.761.

Compared with NCI-H1944, NCI-H358 is higher in relative viability: 0.484 for the first, 0.721 for the second.

Work on NCI-H727 yielded a relative viability of 1.16.

Same assay, conditions: first compound 2.53 µM

Compared with NCI-H2342, PC-14 is lower in relative viability: 0.778 for the first, 0.702 for the second.

Going from NCI-H1650 to NCI-H2009, the relative viability rises from 0.474 to 0.744.

First: NCI-H1993
Second: NCI-H520
The relative viability of the first is lower: 0.748 for the first, 0.753 for the second.

First: PC-3 [JPC-3]
Second: LCLC-103H
The relative viability of the first is higher: 0.741 for the first, 0.701 for the second.

Going from NCI-H647 to NCI-H2228, the relative viability falls from 0.598 to 0.556.

Going from EMC-BAC-2 to NCI-H2087, the relative viability rises from 0.409 to 0.668.

Compared with HCC-366, NCI-H1666 is higher in relative viability: 0.357 for the first, 1.01 for the second.

Going from NCI-H650 to LK-2, the relative viability falls from 0.426 to 0.315.

First: NCI-H2126
Second: NCI-H1648
The relative viability of the first is higher: 0.721 for the first, 0.481 for the second.

Compared with SK-MES-1, H3255 is lower in relative viability: 1.1 for the first, 0.788 for the second.

Compared with COR-L23, COR-L 105 is higher in relative viability: 0.5 for the first, 0.89 for the second.

Going from IA-LM to LOU-NH91, the relative viability falls from 0.968 to 0.943.

Going from ChaGo-K-1 to NCI-H2170, the relative viability rises from 0.715 to 0.83.

Compared with HCC-44, NCI-H522 is lower in relative viability: 1.1 for the first, 0.858 for the second.

First: SW 900
Second: NCI-H1395
The relative viability of the first is lower: 0.562 for the first, 0.638 for the second.

Going from NCI-H1793 to NCI-H1944, the relative viability falls from 0.773 to 0.637.

Going from ABC-1 to NCI-H358, the relative viability falls from 1.07 to 0.714.

Work on NCI-H727 yielded a relative viability of 1.04.

Same assay, conditions: first compound 8 µM

Compared with NCI-H2342, PC-14 is lower in relative viability: 0.775 for the first, 0.561 for the second.

Going from NCI-H1650 to NCI-H2009, the relative viability rises from 0.444 to 0.675.

Compared with NCI-H1993, NCI-H520 is higher in relative viability: 0.818 for the first, 0.843 for the second.

Going from PC-3 [JPC-3] to LCLC-103H, the relative viability rises from 0.695 to 0.748.

First: NCI-H647
Second: NCI-H2228
The relative viability of the first is lower: 0.518 for the first, 0.702 for the second.

Going from EMC-BAC-2 to NCI-H2087, the relative viability rises from 0.401 to 0.512.

First: HCC-366
Second: NCI-H1666
The relative viability of the first is lower: 0.291 for the first, 0.934 for the second.

Compared with NCI-H650, LK-2 is lower in relative viability: 0.401 for the first, 0.213 for the second.

Compared with NCI-H2126, NCI-H1648 is lower in relative viability: 0.711 for the first, 0.64 for the second.

Going from SK-MES-1 to H3255, the relative viability falls from 1.06 to 0.477.

Going from COR-L23 to COR-L 105, the relative viability rises from 0.374 to 0.818.

Going from IA-LM to LOU-NH91, the relative viability falls from 0.96 to 0.869.

Going from ChaGo-K-1 to NCI-H2170, the relative viability falls from 0.766 to 0.688.

Compared with HCC-44, NCI-H522 is lower in relative viability: 1.01 for the first, 0.82 for the second.

First: SW 900
Second: NCI-H1395
The relative viability of the first is lower: 0.548 for the first, 0.786 for the second.

First: NCI-H1793
Second: NCI-H1944
The relative viability of the first is higher: 0.574 for the first, 0.546 for the second.

First: ABC-1
Second: NCI-H358
The relative viability of the first is higher: 0.919 for the first, 0.613 for the second.

With NCI-H727 the relative viability was 1.17.
